# “And” between values parts separate entries of the source, which are not always exact repeats. Identical values can stand only once. Inconclusive results and toxic doses are left out.
# Test system: BDF1 mice, P388 leukemia ip, median survival T/C
# Test: NCI In Vivo Anticancer Drug Screen. Data for tumor model P388 Leukemia (intraperitoneal) in B6D2F1 (BDF1) mice
# Settings: endpoint: median survival time, higher = longer survival
# Summary of the method: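 Transplantable tumour in mice; compound vs vehicle dosing; survival scored; ratio of treated to control reported.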
# [1] = dose: 100.0 mg/kg/injection, schedule: Q01DX009 (ip), vehicle: saline with Tween-80
# [2] = dose: 200.0 mg/kg/injection, schedule: Q01DX009 (ip), vehicle: saline with Tween-80
# [3] = dose: 400.0 mg/kg/injection, schedule: Q01DX009 (ip), vehicle: saline with Tween-80
# [4] = dose: 100.0 mg/kg/injection, schedule: Q04DX003 (ip), vehicle: saline with Tween-80
# [5] = dose: 200.0 mg/kg/injection, schedule: Q04DX003 (ip), vehicle: saline with Tween-80
# [6] = dose: 400.0 mg/kg/injection, schedule: Q04DX003 (ip), vehicle: saline with Tween-80
structure (smiles),measurement,setting,value
CCOC(=O)C1CC1c1ccccc1 (stereo unspecified),T/C,"dose: 50.0 mg/kg/injection, schedule: Q01DX009 (ip), vehicle: saline with Tween-80",110 % of control
same,T/C,[1],115 % of control and 121 % of control
same,T/C,[2],119 % of control
same,T/C,[3],112 % of control
CCN1CCC(O)(c2ccc(Br)cc2)C1 (stereo unspecified),T/C,"dose: 50.0 mg/kg/injection, schedule: Q01DX009 (ip), vehicle: saline",106 % of control
same,T/C,"dose: 100.0 mg/kg/injection, schedule: Q01DX009 (ip), vehicle: saline",97 % of control
C[n+]1csc(=S)[nH]1,T/C,"dose: 25.0 mg/kg/injection, schedule: Q04DX003 (ip), vehicle: saline",86 % of control
same,T/C,"dose: 50.0 mg/kg/injection, schedule: Q04DX003 (ip), vehicle: saline",95 % of control
same,T/C,"dose: 100.0 mg/kg/injection, schedule: Q04DX003 (ip), vehicle: saline",100 % of control
c1ccc([P+](CCN2Cc3ccccc3C2)(c2ccccc2)c2ccccc2)cc1,T/C,"dose: 3.13 mg/kg/injection, schedule: Q01DX009 (ip), vehicle: saline",99 % of control
same,T/C,"dose: 6.25 mg/kg/injection, schedule: Q01DX009 (ip), vehicle: saline",114 % of control
same,T/C,"dose: 12.5 mg/kg/injection, schedule: Q01DX009 (ip), vehicle: saline",105 % of control
COc1ccc(C=NCCN=Cc2ccc(OC)c(OC)c2)cc1OC,T/C,[1],105 % of control
same,T/C,[4],95 % of control
same,T/C,[2],100 % of control
same,T/C,[5],91 % of control
same,T/C,[3],100 % of control
same,T/C,[6],91 % of control
c1ccc(COCC[P+](c2ccccc2)(c2ccccc2)c2ccccc2)cc1,T/C,"dose: 2.5 mg/kg/injection, schedule: Q01DX010 (ip), vehicle: saline",90 % of control
same,T/C,"dose: 5.0 mg/kg/injection, schedule: Q01DX010 (ip), vehicle: saline",100 % of control
same,T/C,"dose: 10.0 mg/kg/injection, schedule: Q01DX010 (ip), vehicle: saline",113 % of control
CC(=O)[S][Pb]([c]1ccccc1)([c]1ccccc1)[c]1ccccc1,T/C,"dose: 4.0 mg/kg/injection, schedule: Q01DX009 (ip), vehicle: Klucel (hydroxypropylcellulose) (HPC)",114 % of control
same,T/C,"dose: 5.9 mg/kg/injection, schedule: Q01DX009 (ip), vehicle: Klucel (hydroxypropylcellulose) (HPC)",110 % of control
same,T/C,"dose: 9.0 mg/kg/injection, schedule: Q01DX009 (ip), vehicle: Klucel (hydroxypropylcellulose) (HPC)",106 % of control
O=C1C(N2CCCC2)=C(N2CC2)C(=O)C(N2CCCC2)=C1N1CC1,T/C,"dose: 0.25 mg/kg/injection, schedule: Q01DX009 (ip), vehicle: saline",172 % of control
C1CC[N-]CC1.C1CC[N-]CC1.C1CC[N-]CC1.C1CC[N-]CC1.[Cl][Rh][Cl],T/C,"dose: 12.5 mg/kg/injection, schedule: Q04DX003 (ip), vehicle: saline",118 % of control
c1cc(NC2CCCCC2)ccc1CN1CCOCC1,T/C,"dose: 50.0 mg/kg/injection, schedule: Q01DX009 (ip), vehicle: other",102 % of control and 109 % of control
same,T/C,"dose: 100.0 mg/kg/injection, schedule: Q01DX009 (ip), vehicle: other",116 % of control
CC(C)(C)CC(Cl)Cl,T/C,"dose: 75.0 mg/kg/injection, schedule: Q01DX009 (ip), vehicle: Klucel (hydroxypropylcellulose) (HPC)",100 % of control
same,T/C,"dose: 100.0 mg/kg/injection, schedule: Q04DX003 (ip), vehicle: Klucel (hydroxypropylcellulose) (HPC)",100 % of control
same,T/C,"dose: 150.0 mg/kg/injection, schedule: Q01DX009 (ip), vehicle: Klucel (hydroxypropylcellulose) (HPC)",100 % of control
same,T/C,"dose: 200.0 mg/kg/injection, schedule: Q04DX003 (ip), vehicle: Klucel (hydroxypropylcellulose) (HPC)",100 % of control
same,T/C,"dose: 400.0 mg/kg/injection, schedule: Q04DX003 (ip), vehicle: Klucel (hydroxypropylcellulose) (HPC)",107 % of control
CSc1nc2c(N)nc(N)nc2nc1C,T/C,[4],100 % of control
same,T/C,[5],108 % of control
same,T/C,[6],108 % of control
Nc1ccccc1SC1CC(=O)N(c2ccc(Br)c(Cl)c2)C1=O (stereo unspecified),T/C,"dose: 0.1 mg/kg/injection, schedule: Q01DX005 (ip), vehicle: saline with Tween-80",98 % of control
same,T/C,"dose: 0.2 mg/kg/injection, schedule: Q01DX005 (ip), vehicle: saline with Tween-80",93 % of control
same,T/C,"dose: 0.4 mg/kg/injection, schedule: Q01DX005 (ip), vehicle: saline with Tween-80",100 % of control
same,T/C,"dose: 1.5 mg/kg/injection, schedule: Q01DX005 (ip), vehicle: saline with Tween-80",95 % of control
same,T/C,"dose: 3.0 mg/kg/injection, schedule: Q01DX005 (ip), vehicle: saline with Tween-80",90 % of control
